# Tested on: soybean (Glycine max)
# Assay: Test B pre-/postemergence plant response
# Type: in vivo
# Details: Postemergence, 31 g ai/ha; 0 to 100 scale (0 no effect, 100 complete control)
# Procedure, shortened: (§1)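 Plants treated either at seeding (loam/sand soil) or postemergence at 2 to 18 cm height, using a surfactant-containing non-phytotoxic solvent formulation. Evaluation was visual after 13 to 15 days, 0 to 100 scale relative to controls.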
row,SMILES,"Plant response rating, Soybean"
1,O=C(C1=C(O)C2CCC(C2)C1=O)c1cnc(-c2ccsc2)n(CC2CCCO2)c1=O (centres unmarked) [Compound 229],95

# Same assay, conditions: Postemergence, 62 g ai/ha; scale 0 to 100 (0 no effect, 100 complete control)
row,SMILES,"Plant response rating, Soybean"
1,O=C(C1=C(O)C2CCC(C2)C1=O)c1cnc(-c2ccsc2)n(CC2CCCO2)c1=O (centres unmarked) [Compound 229],98

# Same assay, conditions: Postemergence, 250 g ai/ha; scale 0 to 100 (0 no effect, 100 complete control); 13 to 15 days
row,SMILES,"Plant response rating, Soybean"
1,O=C(C1=C(O)C2CCC(C2)C1=O)c1cnc(-c2ccsc2)n(CC2CCCO2)c1=O (centres unmarked) [Compound 229],98

# Tested on: wild oat (Avena fatua)
# Assay: Test B pre-/postemergence plant response
# Type: in vivo
# Details: Postemergence, 31 g ai/ha; 0 to 100 scale (0 no effect, 100 complete control)
# Procedure, shortened: as §1
row,SMILES,"Plant response rating, Oat, Wild"
1,O=C(C1=C(O)C2CCC(C2)C1=O)c1cnc(-c2ccsc2)n(CC2CCCO2)c1=O (centres unmarked) [Compound 229],0

# Same assay, conditions: Postemergence, 62 g ai/ha; scale 0 to 100 (0 no effect, 100 complete control)
row,SMILES,"Plant response rating, Oat, Wild"
1,O=C(C1=C(O)C2CCC(C2)C1=O)c1cnc(-c2ccsc2)n(CC2CCCO2)c1=O (centres unmarked) [Compound 229],5

# Same assay, conditions: Postemergence, 250 g ai/ha; scale 0 to 100 (0 no effect, 100 complete control); 13 to 15 days
row,SMILES,"Plant response rating, Oat, Wild"
1,O=C(C1=C(O)C2CCC(C2)C1=O)c1cnc(-c2ccsc2)n(CC2CCCO2)c1=O (centres unmarked) [Compound 229],35

# Tested on: wheat (Triticum aestivum)
# Assay: Test B pre-/postemergence plant response
# Type: in vivo
# Details: Postemergence, 31 g ai/ha; 0 to 100 scale (0 no effect, 100 complete control)
# Procedure, shortened: as §1
row,SMILES,"Plant response rating, Wheat"
1,O=C(C1=C(O)C2CCC(C2)C1=O)c1cnc(-c2ccsc2)n(CC2CCCO2)c1=O (centres unmarked) [Compound 229],0

# Same assay, conditions: Postemergence, 62 g ai/ha; scale 0 to 100 (0 no effect, 100 complete control)
row,SMILES,"Plant response rating, Wheat"
1,O=C(C1=C(O)C2CCC(C2)C1=O)c1cnc(-c2ccsc2)n(CC2CCCO2)c1=O (centres unmarked) [Compound 229],0

# Same assay, conditions: Postemergence, 250 g ai/ha; scale 0 to 100 (0 no effect, 100 complete control); 13 to 15 days
row,SMILES,"Plant response rating, Wheat"
1,O=C(C1=C(O)C2CCC(C2)C1=O)c1cnc(-c2ccsc2)n(CC2CCCO2)c1=O (centres unmarked) [Compound 229],35

# Tested on: ragweed (common ragweed, Ambrosia elatior)
# Assay: Test B pre-/postemergence plant response
# Type: in vivo
# Details: Postemergence, 31 g ai/ha; 0 to 100 scale (0 no effect, 100 complete control)
# Procedure, shortened: as §1
row,SMILES,"Plant response rating, Ragweed"
1,O=C(C1=C(O)C2CCC(C2)C1=O)c1cnc(-c2ccsc2)n(CC2CCCO2)c1=O (centres unmarked) [Compound 229],80

# Same assay, conditions: Postemergence, 62 g ai/ha; scale 0 to 100 (0 no effect, 100 complete control)
row,SMILES,"Plant response rating, Ragweed"
1,O=C(C1=C(O)C2CCC(C2)C1=O)c1cnc(-c2ccsc2)n(CC2CCCO2)c1=O (centres unmarked) [Compound 229],80

# Same assay, conditions: Postemergence, 250 g ai/ha; scale 0 to 100 (0 no effect, 100 complete control); 13 to 15 days
row,SMILES,"Plant response rating, Ragweed"
1,O=C(C1=C(O)C2CCC(C2)C1=O)c1cnc(-c2ccsc2)n(CC2CCCO2)c1=O (centres unmarked) [Compound 229],95

# Tested on: kochia (Kochia scoparia)
# Assay: Test B pre-/postemergence plant response
# Type: in vivo
# Details: Postemergence, 31 g ai/ha; 0 to 100 scale (0 no effect, 100 complete control)
# Procedure, shortened: as §1
row,SMILES,"Plant response rating, Kochia"
1,O=C(C1=C(O)C2CCC(C2)C1=O)c1cnc(-c2ccsc2)n(CC2CCCO2)c1=O (centres unmarked) [Compound 229],55

# Same assay, conditions: Postemergence, 62 g ai/ha; scale 0 to 100 (0 no effect, 100 complete control)
row,SMILES,"Plant response rating, Kochia"
1,O=C(C1=C(O)C2CCC(C2)C1=O)c1cnc(-c2ccsc2)n(CC2CCCO2)c1=O (centres unmarked) [Compound 229],70

# Same assay, conditions: Postemergence, 125 g ai/ha; scale 0 to 100 (0 no effect, 100 complete control)
row,SMILES,"Plant response rating, Kochia"
1,O=C(C1=C(O)C2CCC(C2)C1=O)c1cnc(-c2ccsc2)n(CC2CCCO2)c1=O (centres unmarked) [Compound 229],80

# Same assay, conditions: Postemergence, 250 g ai/ha; scale 0 to 100 (0 no effect, 100 complete control); 13 to 15 days
row,SMILES,"Plant response rating, Kochia"
1,O=C(C1=C(O)C2CCC(C2)C1=O)c1cnc(-c2ccsc2)n(CC2CCCO2)c1=O (centres unmarked) [Compound 229],100

# Tested on: goosegrass (Eleusine indica)
# Assay: Test B pre-/postemergence plant response
# Type: in vivo
# Details: Postemergence, 31 g ai/ha; 0 to 100 scale (0 no effect, 100 complete control)
# Procedure, shortened: as §1
row,SMILES,"Plant response rating, Goosegrass"
1,O=C(C1=C(O)C2CCC(C2)C1=O)c1cnc(-c2ccsc2)n(CC2CCCO2)c1=O (centres unmarked) [Compound 229],70

# Same assay, conditions: Postemergence, 62 g ai/ha; scale 0 to 100 (0 no effect, 100 complete control)
row,SMILES,"Plant response rating, Goosegrass"
1,O=C(C1=C(O)C2CCC(C2)C1=O)c1cnc(-c2ccsc2)n(CC2CCCO2)c1=O (centres unmarked) [Compound 229],70

# Same assay, conditions: Postemergence, 125 g ai/ha; scale 0 to 100 (0 no effect, 100 complete control)
row,SMILES,"Plant response rating, Goosegrass"
1,O=C(C1=C(O)C2CCC(C2)C1=O)c1cnc(-c2ccsc2)n(CC2CCCO2)c1=O (centres unmarked) [Compound 229],70

# Same assay, conditions: Postemergence, 250 g ai/ha; scale 0 to 100 (0 no effect, 100 complete control); 13 to 15 days
row,SMILES,"Plant response rating, Goosegrass"
1,O=C(C1=C(O)C2CCC(C2)C1=O)c1cnc(-c2ccsc2)n(CC2CCCO2)c1=O (centres unmarked) [Compound 229],80

# Tested on: pigweed (Amaranthus retroflexus)
# Assay: Test B pre-/postemergence plant response
# Type: in vivo
# Details: Postemergence, 31 g ai/ha; 0 to 100 scale (0 no effect, 100 complete control)
# Procedure, shortened: as §1
row,SMILES,"Plant response rating, Pigweed"
1,O=C(C1=C(O)C2CCC(C2)C1=O)c1cnc(-c2ccsc2)n(CC2CCCO2)c1=O (centres unmarked) [Compound 229],80

# Same assay, conditions: Postemergence, 62 g ai/ha; scale 0 to 100 (0 no effect, 100 complete control)
row,SMILES,"Plant response rating, Pigweed"
1,O=C(C1=C(O)C2CCC(C2)C1=O)c1cnc(-c2ccsc2)n(CC2CCCO2)c1=O (centres unmarked) [Compound 229],95

# Same assay, conditions: Postemergence, 250 g ai/ha; scale 0 to 100 (0 no effect, 100 complete control); 13 to 15 days
row,SMILES,"Plant response rating, Pigweed"
1,O=C(C1=C(O)C2CCC(C2)C1=O)c1cnc(-c2ccsc2)n(CC2CCCO2)c1=O (centres unmarked) [Compound 229],100
